# Source: ChEMBL document CHEMBL4270538, “Targeting prohibitin with small molecules to promote melanogenesis and apoptosis in melanoma cells” (Eur J Med Chem, 2018)
# What was measured:
# [1] = molecular target: Prohibitin-2 (Homo sapiens) (UniProt Q99623); test: Induction of PHB2-mediated melanogenesis in human HBL cells assessed as pigmentation at 1 uM after 10 days relative to control; format: cell-based
# [2] = molecular target: Prohibitin-2 (Homo sapiens) (UniProt Q99623); test: Induction of PHB2-mediated melanogenesis in human HBL cells assessed as pigmentation at 10 uM after 10 days relative to control; format: cell-based
# Chain of Prohibitin-2 (Homo sapiens) (Q99623 whole entry): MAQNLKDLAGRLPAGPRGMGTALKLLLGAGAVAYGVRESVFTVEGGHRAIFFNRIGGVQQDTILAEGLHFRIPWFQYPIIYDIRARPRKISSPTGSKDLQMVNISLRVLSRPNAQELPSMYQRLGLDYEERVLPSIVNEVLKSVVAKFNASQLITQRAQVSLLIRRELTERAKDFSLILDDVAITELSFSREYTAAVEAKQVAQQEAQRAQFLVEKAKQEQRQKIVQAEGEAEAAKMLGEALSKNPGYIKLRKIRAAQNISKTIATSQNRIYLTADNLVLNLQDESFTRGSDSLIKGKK
SMILES,fold change (FC) [1],fold change (FC) [2]
Fc1cccc(CNc2nc(NCCCCc3ccccc3)nc(Oc3c(F)c(F)c(F)c(F)c3F)n2)c1,0.9,1
CN(C)c1nc(NCc2cccc(F)c2)nc(Oc2c(F)c(F)c(F)c(F)c2F)n1,1.04,1.05
CC[C@H](CO)Nc1nc(Oc2c(F)c(F)c(F)c(F)c2F)nc(N2CCCc3ccccc3C2)n1,0.85,0.74
CNc1nc(Oc2c(F)c(F)c(F)c(F)c2F)nc(N(C)[C@H](C)c2ccccc2)n1,0.88,0.94
OCC1CCN(c2nc(NCc3cccc(F)c3)nc(Oc3c(F)c(F)c(F)c(F)c3F)n2)CC1,0.89,0.84
CN(C)CCNc1nc(Oc2c(F)c(F)c(F)c(F)c2F)nc(N(C)Cc2ccccc2)n1,0.98,0.99
CNc1nc(Oc2c(F)c(F)c(F)c(F)c2F)nc(N2Cc3ccccc3C2)n1,0.93,0.98
CCN(Cc1ccccc1)c1nc(NCCN(C)C)nc(Oc2c(F)c(F)c(F)c(F)c2F)n1,1.11,1.43
Fc1cccc(CNc2nc(NCc3ccccn3)nc(Oc3c(F)c(F)c(F)c(F)c3F)n2)c1,1.02,1.01
C[C@@H](c1ccccc1)N(C)c1nc(NCCN(C)C)nc(Oc2c(F)c(F)c(F)c(F)c2F)n1,0.94,0.71
CC[C@H](CO)Nc1nc(Oc2c(F)c(F)c(F)c(F)c2F)nc(N(C)Cc2cccc(F)c2)n1,0.77,0.81
Fc1cccc(CNc2nc(NCc3ccccc3)nc(Oc3c(F)c(F)c(F)c(F)c3F)n2)c1,0.89,1.1
COCCNc1nc(NCc2cccc(F)c2)nc(Oc2c(F)c(F)c(F)c(F)c2F)n1,0.8,0.76
